Laboratory results: ChEMBL document CHEMBL4177596, “Flavonoids and their derivatives with β-amyloid aggregation inhibitory activity from the leaves and twigs of Pithecellobium clypearia Benth” (Bioorg Med Chem Lett, 2017)
Active and inactive are the calls of the source. The rule behind the calls is not given here.

Experiments:
[1] = biological target: Amyloid-beta precursor protein (Homo sapiens) (UniProt P05067); assay: Inhibition of HFIP-pretreated amyloid beta (1 to 42) (unknown origin) self-induced aggregation at 20 uM incubated for 24 hrs under dark condition by thioflavin-T based fluorometric assay relative to control
SH-SY5Y [2] = assay: Neuroprotective activity against H2O2-induced cell death in human SH-SY5Y cells assessed as increase in cell viability at 100 uM pretreated for 12 hrs followed by H2O2 challenge measured after 3 hrs by MTT assay; format: functional, cell-based
SH-SY5Y [3] = assay: Neuroprotective activity against H2O2-induced morphological changes in human SH-SY5Y cells assessed as reduction in cell shrinkage at 100 uM by phase contrast microscopic analysis; format: functional, cell-based
SH-SY5Y [4] = assay: Neuroprotective activity against H2O2-induced morphological changes in human SH-SY5Y cells assessed as reduction in appearance of apoptotic bodies at 100 uM by phase contrast microscopic analysis; format: functional, cell-based

Amyloid-beta precursor protein (Homo sapiens), sequence (P05067 whole entry): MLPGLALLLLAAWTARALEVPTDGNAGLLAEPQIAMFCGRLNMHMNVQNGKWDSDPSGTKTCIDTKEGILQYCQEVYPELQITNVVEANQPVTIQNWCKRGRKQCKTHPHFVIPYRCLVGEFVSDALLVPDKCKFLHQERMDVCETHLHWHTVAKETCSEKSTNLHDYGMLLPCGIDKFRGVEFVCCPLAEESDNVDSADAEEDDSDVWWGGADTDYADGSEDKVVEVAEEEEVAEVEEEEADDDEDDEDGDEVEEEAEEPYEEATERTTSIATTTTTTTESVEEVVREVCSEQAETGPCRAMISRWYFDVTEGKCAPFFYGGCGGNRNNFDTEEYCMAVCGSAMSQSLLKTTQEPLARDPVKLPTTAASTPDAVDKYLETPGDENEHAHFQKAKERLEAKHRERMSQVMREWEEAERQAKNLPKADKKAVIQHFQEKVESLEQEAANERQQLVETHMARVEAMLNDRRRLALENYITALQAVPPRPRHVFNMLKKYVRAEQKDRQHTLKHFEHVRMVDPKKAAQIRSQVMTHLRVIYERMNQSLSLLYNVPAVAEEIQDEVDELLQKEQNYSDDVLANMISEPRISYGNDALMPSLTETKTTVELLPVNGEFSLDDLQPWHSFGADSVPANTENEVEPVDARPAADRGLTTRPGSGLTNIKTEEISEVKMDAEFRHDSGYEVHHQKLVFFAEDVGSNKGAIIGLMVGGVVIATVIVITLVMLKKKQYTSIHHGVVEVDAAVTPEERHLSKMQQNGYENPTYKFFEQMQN

Compound | inhibition [1] | Activity (SH-SY5Y [2]) | Activity (SH-SY5Y [3]) | Activity (SH-SY5Y [4])
O=C1c2ccc(O)c(O)c2O[C@H](c2ccc(O)c(O)c2)[C@H]1O | 87.7% | Active | Active | Active
O=C(Oc1cc(O)c2c(c1)O[C@H](c1cc(O)c(O)c(O)c1)[C@@H](O)C2)c1cc(O)c(O)c(O)c1 | Active | Active |  | 
O=C(Oc1cc(O)c2c(c1)O[C@H](c1ccc(O)c(O)c1)[C@@H](O)C2)c1cc(O)c(O)c(O)c1 | Active | Active |  | 
O=C(Oc1cc(O)c2c(c1)O[C@H](c1cc(O)c(OC(=O)c3cc(O)c(O)c(O)c3)c(O)c1)[C@@H](O)C2)c1cc(O)c(O)c(O)c1 | 56.3% | Active |  | 
COc1cc(O)cc2oc(-c3ccc(O)cc3)cc(=O)c12 | Active |  |  | 
C[C@@H]1Oc2cccc(O)c2C(=O)[C@@H]1O | Active |  |  | 
COc1cc(O)c(C[C@H](O)Cc2ccc(O)c(OC)c2)c(OC)c1 | Active |  |  | 
COc1cc(OC)c2c(c1)O[C@H](c1cc(O)c(O)c(OC)c1)[C@@H](O)C2 | Active |  |  | 
C[C@@H]1O[C@@H](Oc2c(-c3cc(O)c(O)c(O)c3)oc3cc(O)cc(O)c3c2=O)[C@H](O)[C@H](O)[C@H]1O | 62.2% |  |  | 
O=C(O[C@@H]1Cc2c(O)cc(O)cc2O[C@@H]1c1cc(O)c(O)c(O)c1)c1cc(O)c(O)c(O)c1 | 86.1% |  |  | 
COc1cc(-c2cc(=O)c3c(OC)cc(O)cc3o2)ccc1O | Active |  |  | 
O=c1c(O)c(-c2ccc(O)c(O)c2)oc2cc(O)cc(O)c12 | 88.4% | Active |  | 
O=c1cc(-c2ccc(O)c(O)c2)oc2cc(O)cc(O)c12 | 86.5% | Active |  | 
Oc1cc([C@@H]2CCc3c(O)cccc3O2)cc(O)c1O | 59.6% |  |  | 
O=C(Oc1cc(O)c2c(c1)O[C@@H](c1cc(O)c(O)c(O)c1)CC2)c1cc(O)c(O)c(O)c1 | Active | Active |  | 
C[C@H]1O[C@H](Oc2c(-c3ccc(O)c(O)c3)oc3cc(O)cc(O)c3c2=O)[C@@H](O)[C@@H](O)[C@@H]1O | 70.7% |  |  | 
